# Patent US20200000752A1, “Method for Treating Epilepsy” (Vanderbilt University, priority 2016, published 2020)
# Legend:
# [1] = Brain and plasma concentration of celastrol in mice (IP, oral gavage)
# Text: For chronic dosing, samples were collected 2 hrs after drug administration.
# Blood samples for drug bioanalysis will be collected in EDTA plasma tubes, immediately centrifuged, and the plasma fraction frozen at −80 C until analysis. Whole brains will also be frozen until analysis. […] Study samples, standards, and quality control samples will be precipitated with acetonitrile containing an internal standard, centrifuging the samples, and then injecting the supernatant onto a reverse phase LC/MS/MS system. Assay performance will be checked with retention time, peak shape, and quality control samples. The free drug concentration from animal studies will be calculated by multiplying the in vitro plasma free fraction (funbound) by the determined plasma concentrations. […] GABAA receptor subunits, AKT and neuronal survival signaling molecules, heat shock protein and synaptic scaffold proteins will be the focus.
# [2] = test system: epilepsy mouse models, AppSWE/PsenIdE9 mice; assay: PTZ seizure severity (Racine scale) in different epilepsy mouse models and AppSWE/PsenIdE9 mice; assay type: in vivo; conditions: 0.3 mg/kg IP daily×14 days; PTZ 50 mg/kg IP; n=5 per group
# Text: In this regard, an asterisk stands for the mutant protein aggregation in the neurons in related mouse models.
# [3] = biological target: CYP 2C9 (Homo sapiens, UniProt P11712); assay: biochemical
# [4] = test system: Scn1a^+/− mouse; assay: Chronic intermittent dosing toxicity in an Scn1a+/- mouse; assay type: in vivo
# Text: An eight-month old male Scn1a^+/− mouse with chronic intermittent dosing was investigated for cortex and hippocampus neuronal survival, which was normal (FIG. 8A).
# [5] = test system: Scn1a^+/− mice; assay: Survival and seizure activity in Scn1a+/- mice after 1 month off celastrol; assay type: in vivo, mouse; conditions: 0.3 mg/kg 14 d on and 1 month off
# Text: Intermittent dosing will greatly increase compliance and reduce side effects for long-term treatment. However, it is necessary to determine the duration the efficacy lasts after certain doses and the duration it takes to recover to baseline.
# [6] = test system: cultured cortical neurons from the wild-type mouse brains; assay: Neuronal viability, trypan blue exclusion; assay type: cell-based; conditions: 0-8 μm for 4 hours, at the therapeutic levels
# Description: The neuronal viability was determined with membrane integrity by trypan blue exclusion method^12. The mean survival was determined by counting eight randomly selected, non-overlapping fields with each containing approximately 10-20 neurons (viable+nonviable) (n=4 different cultures). GABAAR expression was determined by the high-throughput flow cytometry. HEK 293T cells were transfected with human α1, β2 and γ2 subunit cDNAs at 1:1:1 ratio for 48 hours. The α1 subunit was chosen as readout. The anti-α1 antibody was directly conjugated with Alexa 488 (data are mean±SEM, n=4). The healthy population was gated.
# [7] = test system: heat shock protein Hsp70; assay: Hsp70 expression by high throughput flow cytometry in HEK 293T cells; assay type: cell-based; conditions: 4 hrs before harvest
# Text: HEK 293T cells were transfected with α1, β2 and wild-type γ2S (wt) or the mutant γ2S(Q390X) (mut) subunits for 48 hrs (FIG. 16). […] The cells were permeabilized and stained with monoclonal hsp70 (1:200) which was then conjugated with Alexa 647.
# [8] = test system: cytochrome P450 enzymes (CYPs); conditions: cited from earlier work
# [9] = biological target: CYP 2C19 (Homo sapiens, UniProt P33261); assay: biochemical
# [10] = test system: mutant GABAA α1β2γ2(R82Q) receptors; assay: Expression of mutant α1β2γ2(R82Q) receptor subunits in HEK 293T cells (SDS-PAGE immunoblot); assay type: cell-based
# Description: HEK 293T cells were transfected with α1, […] and the mutant γ2(R82Q) subunits at 1:1:1 cDNA ratio for 48 hrs. […] (FIG. 20A). Total cell lysates were analyzed by SDS-PAGE and the membrane was immunoblotted against al or γ2 subunits. (FIG. 20A). Protein IDVs of al or γ2 subunits were normalized to the cells without treatment (0) (FIG. 20B).
# [11] = test system: GABAA receptor subunits; assay: Surface GABAA receptor subunit expression in Scn1a+/- mice; assay type: in vivo, mouse; conditions: 0.3 mg/kg IP for 14 days, cortex and thalamus
# Description: The biotinylated surface proteins from either cortex (FIG. 15A) or thalamus (FIG. 15B) were analyzed by SDS-PAGE and immunoblotted with anti-GABAA receptor al subunit antibody. The protein IDVs of al subunits were normalized to its loading control and then to that in either cortex (cor) or thalamus (tha) in untreated wild-type mice (n==4) (FIGS. 15C and 15D). […] In FIGS. 15E and 15G, MJ stands for myoclonic jerks with behavioral correlation while GTCS for generalized tonic clonic seizures. The number of myoclonic jerks (MJ) and generalized tonic clonic seizures (GTCS) is the total number over 24 hrs. In G, mice were from the same litter, n=2 for each genotype.
# [12] = test system: Scn1a^+/− mice
# [13] = test system: mutant γ2(Q390X) subunit protein; assay: Western blot of mutant γ2(Q390X) subunit protein in HEK 293T cells; assay type: cell-based; conditions: 1 μm for 4 hours
# Description: Total lysates from HEK 293T cells expressing wild-type α1β2γ2 (wt) or the mutant α1β2γ2(Q390X) (mut) receptors for 48 hrs from or from 1 year old wt or Gabrg2^+/Q390X (het) mouse brains were analyzed by western blot (FIGS. 10A and 10B).
# [14] = test system: Caco2 cells; assay: Caco-2 intrinsic permeability
# [15] = Caco-2 intrinsic permeability; conditions: human
# [16] = Tolerability of repeated daily IP dosing in mice; assay type: in vivo
# [17] = rats; cited from earlier work
# [18] = 3 litters with 6-8 grossly normal pups
# CYP 2C19, sequence (P33261 whole entry): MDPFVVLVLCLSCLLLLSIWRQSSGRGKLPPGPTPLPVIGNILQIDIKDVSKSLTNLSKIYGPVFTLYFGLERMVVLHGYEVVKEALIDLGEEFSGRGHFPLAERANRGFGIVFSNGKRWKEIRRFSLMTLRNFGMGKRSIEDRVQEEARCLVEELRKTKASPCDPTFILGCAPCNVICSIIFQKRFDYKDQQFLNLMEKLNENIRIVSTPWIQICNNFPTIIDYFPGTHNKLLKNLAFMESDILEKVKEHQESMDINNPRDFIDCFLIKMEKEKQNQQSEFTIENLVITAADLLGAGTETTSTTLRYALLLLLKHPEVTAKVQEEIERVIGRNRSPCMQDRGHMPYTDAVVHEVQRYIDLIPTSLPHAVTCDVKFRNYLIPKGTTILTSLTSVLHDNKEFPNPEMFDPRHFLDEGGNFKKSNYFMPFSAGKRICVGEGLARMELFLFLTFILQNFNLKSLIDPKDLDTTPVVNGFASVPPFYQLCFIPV
# CYP 2C9, sequence (P11712 whole entry): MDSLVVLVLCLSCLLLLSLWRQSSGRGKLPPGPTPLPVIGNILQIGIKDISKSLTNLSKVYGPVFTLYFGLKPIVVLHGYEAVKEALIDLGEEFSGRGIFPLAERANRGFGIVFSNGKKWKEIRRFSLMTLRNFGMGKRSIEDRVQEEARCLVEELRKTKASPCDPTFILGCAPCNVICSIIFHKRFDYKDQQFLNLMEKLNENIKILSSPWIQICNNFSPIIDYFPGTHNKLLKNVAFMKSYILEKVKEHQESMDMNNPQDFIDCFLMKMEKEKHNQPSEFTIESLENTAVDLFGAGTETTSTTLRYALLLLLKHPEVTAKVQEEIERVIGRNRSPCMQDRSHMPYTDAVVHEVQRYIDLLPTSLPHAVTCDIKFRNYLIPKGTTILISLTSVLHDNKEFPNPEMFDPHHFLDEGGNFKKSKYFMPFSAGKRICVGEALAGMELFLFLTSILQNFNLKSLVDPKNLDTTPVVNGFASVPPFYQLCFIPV
compound,measurement,setting,value
"CC1=C(O)C(=O)C=C2C1=CC=C1[C@@]2(C)CC[C@@]2(C)[C@@H]3C[C@](C)(C(=O)O)CC[C@]3(C)CC[C@]12C [Celastrol, 3-Hydroxy-9β,13α-dimethyl-2-oxo-24,25,26-trinoroleana-1(10),3,5,7-tetraen-29-oic acid]",celastrol concentration in the mouse brain,[1]; level with good efficacy,120-150 nm
same,Kp at 24 h,"[1]; mouse, brain, intraperitoneal, 0.3 mg/kg",> 1.2
same,concentration at 2 h,"[1]; mouse, brain, po, 3 mg/kg",0.121 µM
same,seizure severity,[2],reduced seizure severity
same,IC50,[3],4.88 µM
same,fertility,[4]; [18],normal fertility
same,teratogenicity,[4]; [18],no teratogenicity
same,"HE staining of liver, kidney and heart",[4]; chronic intermittent dosing,"Normal cell numbers, morphology and viability"
same,"HE staining of lung, spleen, intestine, testis, leg muscle and skin",[4]; chronic intermittent dosing,no abnormalities were identified
same,blood counts,[4]; chronic intermittent dosing,normal blood counts
same,"organ function, total protein and metabolics",[4]; chronic intermittent dosing,"normal function of liver, heart and kidney and normal total protein and metabolics"
same,cortex and hippocampus neuronal survival,"[4]; eight-month old male, chronic intermittent dosing",normal
same,seizure duration after PTZ,[5],shortened seizure duration
same,seizure onset after PTZ,[5],delayed seizure onset
same,seizure severity after PTZ,[5],reduced seizure severity
same,survival,[5]; vs untreated littermates,increased survival
same,cell viability,[6],no reduced cell viability
same,expression of Hsp70,[7],Increased
same,CYP inhibition as reported in the literature,[8],inhibits several CYP enzymes
same,IC50,[9],> 10 µM
same,expression of mutant α1β2γ2(R82Q) receptors,[10]; applied 4 hrs before harvest,increased
same,"enhancing GABAA receptor subunit expression, comparison","[10]; different concentrations, 4 hrs",more effective in enhancing GABAA receptor subunit expression than Stiripentol
same,surface GABAA receptor subunit expression,[11],Increased
same,Number SWDs,"[12]; SWDs over 1 sec, 30 min after PTZ 50 mg/kg, n=2, celastrol 0.3 mg/kg intermittent (8th day of drug holiday), diazepam 0.3 mg/kg, stiripentol 150 mg/kg, saline 21",2
same,efficacy in reducing seizure severity versus comparators,[12]; chronic intermittent dosing 0.3 mg/kg IP,Better Efficacy in Reducing Seizure Severity than Diazepam or Stiripentol
same,mutant γ2(Q390X) subunit protein,[13],reduced
same,"membrane permeability in Caco2 assay, in words",[14],high membrane permeability
same,"Papp at 2 h, 2 microM",[15],≥ 10 nm/s
same,adverse signs,"[16]; 3 and 6 mg/kg IP daily, Gabrg2^+/Q390X mice","lethargy, unkempt fur"
same,adverse signs,"[16]; IP 3 mg/kg daily for 5 days, starting at day 4","lethargy, unkempt fur and weight loss"
same,tolerability,"[16]; IP 0.3, 0.6 and 1.5 mg/kg daily for 7 days, C57BL/6J mice",tolerated well
same,adverse effect at doses other than 3 and 6 mg/kg,[16]; IP daily 2 weeks or oral gavage 14 days,no adverse effect
same,oral bioavailability (reported),[17],17.1%
